In data set [1] the test system is TNF-α. In words: LPS-induced TNF-α secretion by liver slices after in vivo ASO administration (ELISA). Conditions: for inhibition of LPS-induced TNF-α production in liver slices: vs empty liposomes. Details: species or system rat. As for the experimental part: FIG. 4. In vivo efficacy of ASO TJU-2755 (SEQ. ID. NO: 1) against TNF-α in the liver: Effect of duration post-injection. Rats are intravenously injected with pH-sensitive liposomes encapsulated with TJU-2755 (1.5-1.75 mg/Kg body wt). At different times (24, 48 and 72 h) after ASO administration, LPS (50 μg/Kg body weight for 90 minutes) is administered intravenously (i.v.) and the animals are sacrificed 90 min after this challenge. Liver is excised, slices prepared and incubated for 2 h (infra). The amount of TNF-α released into the medium is measured by ELISA. The TNF-α values (bars) from the ASO-treated animals are normalized to control values (control=100) obtained from body weight-matched rats treated similarly except that they are injected with “empty” liposomes. Values indicated are means ±S.E. of (n) determinations. Number of animals, 24 h, n=3; 48 h, n=4, 72 h, n=3. * p<0.05 (vs Control).
FIG. 5. In vivo efficacy of ASO TJU-2755 (SEQ. ID. NO: 1) against TNF-α in the liver: Effect of multiple injections. Rats are injected with either one or two daily doses of ASO (1.5-1.75 mg/Kg body wt) encapsulated liposomes. […] The amount of TNF-α produced by liver slices is determined as described in legend to FIG. 4 (supra). Bars indicate the amount of TNF-α produced by ASO-treated animals, expressed as percent of controls injected with “empty” liposomes and are the means ±S.E. of n=4 for single dose and n=7 for two doses. *p<0.05, **p<0.01 vs control). The absolute values (Mean) of TNF-α for control and TNF-2755-treated livers (for two daily doses) were 17,748 and 7,500 pg/g liver, respectively.
Following the in vivo administration of LPS, the production of TNF-α in the liver is assessed by measuring the amount of TNF-α secreted by liver slices. Liver slices are prepared and incubated in culture medium according to the procedure described by Videla and Israel (Videla, L., Israel, Y., Biochem J. 118: 275-281, 1970) with modifications, which include the addition of insulin and fetal calf serum to the culture medium. Briefly, liver slices of uniform thickness (10×4×0.4 mm) are prepared from the mid lobe and initially rinsed in ice-cold William's E medium. The slices (2 slices per dish) are transferred to culture dishes (35 mm) containing 2 ml of fresh medium (90% William's E, 10% fetal calf serum and 2 units of insulin/100 ml) and incubated at 37° C. for 2 h. The amount of TNF-α released into the medium is measured (infra).
(§1) ELISA is conducted by using Cytoscreen KRC3012 kits (Biosource, Camarillo, Calif.) according to the manufacturer's specifications. Supernatants containing high TNF-α levels are diluted prior to the assay to assure assay results within the standard curve.
(§2) Rats are injected intravenously with two daily doses (1.5 mg/Kg body wt.) of ASO TJU-2755 (SEQ. ID. NO: 1) encapsulated in pH-stable liposomes and challenged with LPS (50 μg/Kg body wt.) at 48 h post injection. Animals are sacrificed 90 minutes post-LPS. The amount of TNF-α in plasma, as well as that secreted by liver slices, is determined exactly as described for pH-sensitive liposomes (supra) and legends to FIG. 4 and FIG. 5. Body-weight matched rats injected with two doses of “empty” liposomes and challenged similarly with LPS constituted the control group. All TNF-α values are normalized to the corresponding control groups (=100). Values are expressed as mean ±S.E of (n) determinations.
On the technique in general: ELISA stands for enzyme-linked immunosorbent assay.

Data set [2] has as its system TNF-α. Description: Plasma TNF-α after LPS challenge following in vivo ASO administration (ELISA). The arrangement: species or system rat. As for the experimental part:
FIG. 6. […] Rats are injected with either one (n=3), two (n=8) or three (n=1) daily doses of TJU-2755 (SEQ. ID. NO: 1) and administered LPS (50 μg/Kg body wt.) at 48 h after the last injection of the antisense formulation as described in legend to FIG. 5. […] Plasma TNF-α is determined by ELISA. Bars indicate values from ASO-treated animals expressed as percent of corresponding controls (animals dosed with “empty liposomes”) and are the means ±S.E of (n) determinations. ***p<0.001 between rats injected two daily doses of ASO and controls. The absolute (Mean) values of TNF-α for control and TJU-2755 (SEQ. ID. NO: 1)-treated plasma samples (for two daily doses) were 34,375 and 9,731 (pg/ml plasma) respectively.
as §1, §2

Data set [3] has as its system TNF-α mRNA. Description: Tissue levels of TNF-α mRNA by Northern hybridization. The format is in vivo, rat. Conditions: pH-sensitive liposomes, two daily doses 1.5 mg/Kg, LPS 48 h post ASO, normalized to GAPDH, vs empty liposomes. As for the experimental part:
FIG. 8. Effect of ASO TJU-2755 (SEQ. ID. NO: 1) in vivo on TNF-α mRNA. Rats are injected with two daily doses (1.5 mg/Kg body wt.) of ASO and injected with LPS (50 μg/Kg body wt.) 48 h post ASO administration as described in legend to FIG. 5. Liver (n=5) and spleen (n=4) are processed for the extraction of mRNA fractions. Steady-state levels of TNF-α mRNA are determined by Northern hybridization and normalized to the levels of GAPDH mRNA. Bars indicate mRNA (Means ±S.E) of (n) values from ASO-treated samples, expressed as percent of control values derived from rats treated with “empty” liposomes. *p<0.05, **p<0.01 (Vs control).
Liver and spleen samples (≈100 mg) are homogenized in 3 volumes of cold TRI Reagent (Molecular Research Center, Inc.). […] The intactness of total RNA is measured by agarose (1%) gel electrophoresis by visualizing the intactness of ribosomal RNA (28S, 18S). […] The purity of the isolated mRNA is monitored by analyzing the absorption ratios of 260 to 280 (nm), which always ranged from 1.8-2.0.
Samples of mRNA are run on 1% agarose gel electrophoresis, vacuum transferred (BIORAD Model 785 Vacuum Blotter) onto a nitrocellulose membrane (Amersham), and crosslinked (Statagene UV Stratalinker 2400). […] The autoradiograms are quantitated using an ultrascan laser densitometer. […]

For data set [4], the system named is TNF-α. Conditions: primary Kupffer cells ex vivo; cited from earlier work.
Setting [5] is: pH-stable liposomes, two daily doses 1.5 mg/Kg i.v., LPS at 48 h, mean ± S.E.

Bounds are passed on as bounds.

In the case of “TJU-2755: phosphorothioate 21-mer antisense oligonucleotide 5′-TGATCCACTCCCCCCTCCACT-3′, complementary to the 3′-untranslated region of rat TNF-α mRNA (all phosphorothioate, sugars by position and methylation of C not given here)”, the “inhibitory effect on LPS-induced TNF-α production” value in data set [1] (ASO delivered with pH-stable liposomes (liver and plasma, Table 1)) is “no inhibitory effect”. Moreover, the “inhibition of LPS-induced TNF-α production in liver slices” value in data set [1] (pH-sensitive liposomes, single i.v. dose, LPS 48 h post injection) is roughly 30%. Moreover, the “inhibition of LPS-induced TNF-α production in liver slices” value in data set [1] (pH-sensitive liposomes, two daily doses, LPS 48 h after last injection) came out at 50%. In data set [1] (pH-sensitive liposomes, two daily doses, control 17,748), the “TNF-α produced by liver slices, absolute mean” value is 7,500 pg/g liver. The “TNF-α (%) liver, normalized to control (=100)” value in data set [1] (setting [5]) is reported as 103 ± 23%. Besides, the “reduction in plasma TNF-α levels” value in data set [2] (pH-sensitive liposomes, 2 doses, LPS 48 h after last injection, vs empty liposomes) was found to be 68%. In addition, in data set [2] (pH-sensitive liposomes, two daily doses, control 34,375), the “plasma TNF-α, absolute mean” value is listed as 9,731 pg/ml plasma. Besides, the “TNF-α (%) plasma, normalized to control (=100)” value in data set [2] (setting [5]) is 93 ± 28%. In data set [3], the “reduction in TNF-α mRNA levels, spleen” value was determined as 36.5% and the “reduction in steady-state levels of TNF-α mRNA, liver” value was 35%. Also, in data set [4], the “inhibition of LPS-stimulated TNF-α production” value is listed as greater than 90%.

The values above are taken from patent publication US20020192274A1, “pH sensitive liposomal drug delivery” (priority 2001, published 2002).
